#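 Where inhibition never reached the appropriate level, the endpoint shown equals the highest concentration tested. Otherwise, values were interpolated linearly from a five-concentration, 48-hour dose response in 96-well plates. GI50 is the concentration that inhibits growth by half.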 Activity calls are given as the source filed them. Cut-off read from the data, not from the text of the source: active = GI50 up to about 1.1 µM and inactive = higher.
# Assays:
# Test in all cases: inhibition of tumour cell growth, NCI panel, 48 h
# IGROV-1 = test system: IGROV-1
# COLO 205 = test system: COLO 205
# KM-20L2 = test system: KM-20L2
# NCI-H23 = test system: NCI-H23
# MOLT-4 = test system: MOLT-4
# M14 = test system: M14
# DMS-273 = test system: DMS-273
# HL-60 = test system: HL-60
# CAKI-1 = test system: CAKI-1
# OVCAR-4 = test system: OVCAR-4
# SW-620 = test system: SW-620
# SN12C = test system: SN12C
# OVCAR-5 = test system: OVCAR-5
# SF-268 = test system: SF-268
# SK-MEL-2 = test system: SK-MEL-2
# NCI-H522 = test system: NCI-H522
# LXFL 529 = test system: LXFL 529
# SR = test system: SR
# HCT-15 = test system: HCT-15
# HCC 2998 = test system: HCC 2998
# HCT-116 = test system: HCT-116
# CCRF-CEM = test system: CCRF-CEM
# SNB-19 = test system: SNB-19
# ACHN = test system: ACHN
# DLD-1 = test system: DLD-1
# DMS-114 = test system: DMS-114
# KM12 = test system: KM12
# SK-MEL-28 = test system: SK-MEL-28
# EKVX = test system: EKVX
# RPMI-8226 = test system: RPMI-8226
# M19-MEL = test system: M19-MEL
# HOP-62 = test system: HOP-62
# HOP-18 = test system: HOP-18
# NCI-H226 = test system: NCI-H226
# SK-OV-3 = test system: SK-OV-3
# K562 = test system: K562
# RXF 393 = test system: RXF 393
# HT-29 = test system: HT-29
# SNB-75 = test system: SNB-75
# UACC-257 = test system: UACC-257
# LOX IMVI = test system: LOX IMVI
# UO-31 = test system: UO-31
# SK-MEL-5 = test system: SK-MEL-5
# OVCAR-8 = test system: OVCAR-8
# OVCAR-3 = test system: OVCAR-3
# A549 = test system: A549
# 786-0 = test system: 786-0
# A498 = test system: A498
# Malme-3M = test system: Malme-3M
# TK-10 = test system: TK-10
# SF-295 = test system: SF-295
# U-251 = test system: U-251
# NCI-H460 = test system: NCI-H460
# UACC-62 = test system: UACC-62
# HOP-92 = test system: HOP-92
# T47D = test system: T47D
# PC-3 = test system: PC-3
# MDA-MB-435 = test system: MDA-MB-435
# DU-145 = test system: DU-145
# SNB-78 = test system: SNB-78
# MDA-N = test system: MDA-N
# BT-549 = test system: BT-549
# MCF7 = test system: MCF7
# SF-539 = test system: SF-539
# MDA-MB-231 = test system: MDA-MB-231
# Hs-578T = test system: Hs-578T
# NCI/ADR-RES = test system: NCI/ADR-RES
compound,measurement,setting,value
C/C(=C\c1ccccc1)C(O)S(=O)(=O)O (centres undefined),GI50,IGROV-1,> 100 µM (inactive)
same,GI50,COLO 205,> 100 µM (inactive)
same,GI50,KM-20L2,> 100 µM (inactive)
same,GI50,NCI-H23,> 100 µM (inactive)
same,GI50,MOLT-4,> 100 µM (inactive)
same,GI50,M14,> 100 µM (inactive)
same,GI50,DMS-273,> 100 µM (inactive)
same,GI50,HL-60,> 100 µM (inactive)
same,GI50,CAKI-1,> 100 µM (inactive)
same,GI50,OVCAR-4,> 100 µM (inactive)
same,GI50,SW-620,> 100 µM (inactive)
same,GI50,SN12C,> 100 µM (inactive)
same,GI50,OVCAR-5,> 100 µM (inactive)
same,GI50,SF-268,> 100 µM (inactive)
same,GI50,SK-MEL-2,> 100 µM (inactive)
same,GI50,NCI-H522,> 100 µM (inactive)
same,GI50,LXFL 529,> 100 µM (inactive)
same,GI50,SR,> 100 µM (inactive)
same,GI50,HCT-15,> 100 µM
same,GI50,HCC 2998,> 100 µM (inactive)
same,GI50,HCT-116,> 100 µM (inactive)
same,GI50,CCRF-CEM,> 100 µM (inactive)
same,GI50,SNB-19,> 100 µM (inactive)
same,GI50,ACHN,> 100 µM (inactive)
same,GI50,DLD-1,> 100 µM (inactive)
same,GI50,DMS-114,> 100 µM (inactive)
same,GI50,KM12,> 100 µM (inactive)
same,GI50,SK-MEL-28,> 100 µM (inactive)
same,GI50,EKVX,> 100 µM (inactive)
same,GI50,RPMI-8226,> 100 µM (inactive)
same,GI50,M19-MEL,> 100 µM (inactive)
same,GI50,HOP-62,> 100 µM (inactive)
same,GI50,HOP-18,> 100 µM (inactive)
same,GI50,NCI-H226,> 100 µM (inactive)
same,GI50,SK-OV-3,> 100 µM (inactive)
same,GI50,K562,> 100 µM (inactive)
same,GI50,RXF 393,> 100 µM (inactive)
same,GI50,HT-29,> 100 µM (inactive)
same,GI50,SNB-75,> 100 µM (inactive)
same,GI50,UACC-257,> 100 µM (inactive)
same,GI50,LOX IMVI,> 100 µM (inactive)
same,GI50,UO-31,> 100 µM (inactive)
same,GI50,SK-MEL-5,> 100 µM (inactive)
same,GI50,OVCAR-8,> 100 µM (inactive)
same,GI50,OVCAR-3,> 100 µM (inactive)
same,GI50,A549,> 100 µM (inactive)
same,GI50,786-0,> 100 µM (inactive)
same,GI50,A498,> 100 µM (inactive)
same,GI50,Malme-3M,> 100 µM (inactive)
same,GI50,TK-10,> 100 µM (inactive)
same,GI50,SF-295,> 100 µM (inactive)
same,GI50,U-251,> 100 µM (inactive)
same,GI50,NCI-H460,> 100 µM (inactive)
same,GI50,UACC-62,> 100 µM (inactive)
O=P1(NCCCl)OCCC(OO)N1CCCl (centres undefined),GI50,HOP-92,16.8 µM (inactive)
same,GI50,T47D,0.316 µM (active)
same,GI50,PC-3,68.5 µM (inactive)
same,GI50,IGROV-1,> 100 µM (inactive)
same,GI50,MDA-MB-435,56.1 µM (inactive)
same,GI50,COLO 205,33.1 µM (inactive)
same,GI50,KM-20L2,> 100 µM (inactive)
same,GI50,NCI-H23,28.4 µM (inactive)
same,GI50,MOLT-4,> 36.9 µM (inactive)
same,GI50,DU-145,54 µM (inactive)
same,GI50,SNB-78,34.2 µM (inactive)
same,GI50,M14,21.9 µM (inactive)
same,GI50,DMS-273,47.3 µM (inactive)
same,GI50,HL-60,6.82 µM (inactive)
same,GI50,CAKI-1,18.3 µM (inactive)
same,GI50,OVCAR-4,20.5 µM (inactive)
same,GI50,SW-620,15.7 µM (inactive)
same,GI50,MDA-N,29.3 µM (inactive)
same,GI50,SN12C,37.4 µM (inactive)
same,GI50,OVCAR-5,42.9 µM (inactive)
same,GI50,SF-268,35.2 µM (inactive)
same,GI50,SK-MEL-2,37.7 µM (inactive)
same,GI50,NCI-H522,11.5 µM (inactive)
same,GI50,SR,> 100 µM (inactive)
same,GI50,BT-549,39.5 µM (inactive)
same,GI50,HCT-15,18 µM
same,GI50,HCC 2998,> 100 µM (inactive)
same,GI50,HCT-116,15.8 µM (inactive)
same,GI50,MCF7,24.9 µM (inactive)
same,GI50,CCRF-CEM,9.44 µM (inactive)
same,GI50,SNB-19,> 52 µM (inactive)
same,GI50,ACHN,14.4 µM (inactive)
same,GI50,DLD-1,21.2 µM (inactive)
same,GI50,DMS-114,31.6 µM (inactive)
same,GI50,SF-539,16.9 µM (inactive)
same,GI50,MDA-MB-231,> 100 µM (inactive)
same,GI50,KM12,> 100 µM (inactive)
same,GI50,SK-MEL-28,18.9 µM (inactive)
same,GI50,EKVX,> 100 µM (inactive)
same,GI50,RPMI-8226,7.03 µM (inactive)
same,GI50,M19-MEL,34.8 µM (inactive)
same,GI50,HOP-62,52.4 µM (inactive)
same,GI50,HOP-18,39.9 µM (inactive)
same,GI50,NCI-H226,> 100 µM (inactive)
same,GI50,SK-OV-3,> 94 µM (inactive)
same,GI50,K562,19.4 µM (inactive)
same,GI50,RXF 393,17.8 µM (inactive)
same,GI50,HT-29,36.6 µM (inactive)
same,GI50,SNB-75,32.7 µM (inactive)
same,GI50,UACC-257,32.1 µM (inactive)
same,GI50,LOX IMVI,1.82 µM (inactive)
same,GI50,Hs-578T,50.4 µM (inactive)
same,GI50,UO-31,> 64.3 µM (inactive)
same,GI50,SK-MEL-5,93.5 µM (inactive)
same,GI50,OVCAR-8,46.1 µM (inactive)
same,GI50,OVCAR-3,23.2 µM (inactive)
same,GI50,A549,> 71.9 µM (inactive)
same,GI50,786-0,26.1 µM (inactive)
same,GI50,Malme-3M,17.3 µM (inactive)
same,GI50,TK-10,20 µM (inactive)
same,GI50,SF-295,1.72 µM (inactive)
same,GI50,U-251,32.4 µM (inactive)
same,GI50,NCI-H460,37.8 µM (inactive)
same,GI50,UACC-62,21.1 µM (inactive)
same,GI50,NCI/ADR-RES,28.7 µM (inactive)
O=C1NC(=S)S/C1=C/c1ccco1,GI50,HOP-92,49.4 µM (inactive)
same,GI50,IGROV-1,> 100 µM (inactive)
same,GI50,COLO 205,> 100 µM (inactive)
same,GI50,NCI-H23,> 100 µM (inactive)
same,GI50,M14,> 100 µM (inactive)
same,GI50,DMS-273,> 100 µM (inactive)
same,GI50,CAKI-1,> 100 µM (inactive)
same,GI50,OVCAR-4,> 100 µM (inactive)
same,GI50,SW-620,> 100 µM (inactive)
same,GI50,SN12C,> 100 µM (inactive)
same,GI50,OVCAR-5,> 100 µM (inactive)
same,GI50,SF-268,> 100 µM (inactive)
same,GI50,LXFL 529,> 100 µM (inactive)
same,GI50,HCT-15,> 100 µM
same,GI50,HCC 2998,> 100 µM (inactive)
same,GI50,HCT-116,> 100 µM (inactive)
same,GI50,SNB-19,> 100 µM (inactive)
same,GI50,ACHN,> 100 µM (inactive)
same,GI50,DLD-1,> 100 µM (inactive)
same,GI50,DMS-114,> 100 µM (inactive)
same,GI50,SF-539,> 100 µM (inactive)
same,GI50,SK-MEL-28,> 100 µM (inactive)
same,GI50,EKVX,> 100 µM (inactive)
same,GI50,NCI-H226,> 100 µM (inactive)
same,GI50,SK-OV-3,> 100 µM (inactive)
same,GI50,RXF 393,> 100 µM (inactive)
same,GI50,HT-29,> 100 µM (inactive)
same,GI50,SNB-75,> 100 µM (inactive)
same,GI50,UACC-257,46.3 µM (inactive)
same,GI50,LOX IMVI,> 100 µM (inactive)
same,GI50,UO-31,> 100 µM (inactive)
same,GI50,SK-MEL-5,> 100 µM (inactive)
same,GI50,OVCAR-8,> 100 µM (inactive)
same,GI50,OVCAR-3,50.1 µM (inactive)
same,GI50,A549,> 100 µM (inactive)
same,GI50,A498,11.1 µM (inactive)
same,GI50,TK-10,> 100 µM (inactive)
same,GI50,SF-295,> 100 µM (inactive)
same,GI50,NCI-H460,> 100 µM (inactive)
same,GI50,UACC-62,> 100 µM (inactive)
